Test results reported in US20080269201A1, “Azepane- or Azocane-Substituted Pyrazoline Derivatives, Their Preparation and Use as Medicaments” (LABORATORIOS DEL DR. ESTEVE, S.A., priority 2005, published 2008).

Experiments:
[1] = molecular target: T1, transfected human CB1 receptor (Homo sapiens, UniProt P21554); assay: In-vitro determination of affinity to CB1/CB2 receptors, radioligand [3H]-CP55940; conditions: binding to CB1/CB2 receptors as described, table does not name the subtype, text points to CB1
T1 construct: purchased Receptor Biology, Inc
Protocol: The in-vitro determination of the affinity of the inventive quaternary ammonium salts of substituted pyrazoline compounds to CB1/CB2-Rezeptors is carried out as described in the publication of Ruth A. Ross, Heather C. Brockie et al., “Agonist-inverse agonist characterization at CB1 and CB2 cannabinoid receptors of L-759633, L759656 and AM630”, British Journal of Pharmacology, 126, 665-672, (1999), whereby the transfected human CB1 and CB2 receptors of Receptor Biology, Inc. are used. The radioligand used for both receptors is [^3H]-CP55940. The respective parts of the description are hereby incorporated by reference and forms part of the present disclosure.
The affinity of the inventive substituted pyrazoline compounds to CB1/CB2 receptors was determined as described above.

[2] = In vivo testing for antiobesic activity, acute treatment; conditions: rats, acute oral administration, HCl-salts; body weight difference vs control
Protocol: Normally handled rats were habituated to a reversed cycle 12/12 h, and the compound as well as saline was acutely orally administered. After administration the cumulated food intake (g) was measured at 6 h and 23 h. Following that the difference in body weight between control and compound treated animals was measured.

[3] = molecular target: T2, recombinant human cannabinoid 1 receptor (CB1), CHO cell membranes (Homo sapiens, UniProt P21554); assay: [35S]GTPγS binding assay, antagonism against WIN 55,212-2; assay type: biochemical; conditions: compound at 1 μM against WIN 55,212-2 dose response; 100% = effect of internal standard CB1-antagonist
T2 construct: expressed in transfected cells; membranes prepared
Protocol: Chinese hamster ovary (CHO) cells stably expressing recombinant human cannabinoid 1 receptor (CB1) were cultured in nutrient mixture Ham's F 12 supplemented with 10% heat-inactivated fetal bovine serum, 2 mM L-glutamine, 50 U/ml penicillin, 50 U/ml streptomycin and 0.5 mg/ml geneticin. In order to obtain cells, culture flasks were washed twice with phosphate buffered saline and scraped. Then, cells were collected by centrifugation (200×g, 10 min) and stored dry at −80° C. Cells were homogenized in ice-cold 20 mM HEPES, 10 mM EDTA (pH 7.5) and centrifuged at 40,000×g for 15 min at 4° C. The pellet was resuspended in 20 mM HEPES, 0.1 mM EDTA (pH 7.5) and centrifuged for 15 min at 4° C. The final pellet was resuspended in 20 mM HEPES, 0.1 mM EDTA (pH 7.5), and divided in aliquots and stored at −80° C. until use.
The reaction was performed in 96-well plates. Membranes (15 µg protein/well) were incubated for 60 min at 30° C. in buffer (50 mM HEPES, 100 mM KCl, 5 mM MgCl2, 1 mM EDTA, 0.1% wt/vol bovine serum albumin, […], saponin (10 μg/ml), 0.5 nM [^35S]GTPγS, pH 7.4) with compound at 1 μM final concentration in either the absence or presence of dose response curve of agonist WIN 55, 212-2 between 3 nM and 3 μM. The incubation was terminated by rapid filtration through Millipore Multiscreen glass fiber FB, and rinsed two-times with ice-cold assay buffer. Filter plates were dried and 30 μl of scintillation liquid was added. Radioactivity was determined using Wallac Microbeta Trilux. Each experiment was performed at least in duplicate. A WIN 55, 212-2 dose-response was systematically performed.
The average of basal [^35S]GTPγS binding was subtracted from all binding data. In order to compare the antagonism results from one screening campaign to another one, the difference between the maximal agonist effect of WIN 55, 212-2 alone, and the maximal antagonism effect due to WIN 55, 212-2 with an internal standard CB1-antagonist was defined as 100%.
The determination of cannabinoid activity in-vivo was determined as described above.

T2 sequence (P21554 whole entry): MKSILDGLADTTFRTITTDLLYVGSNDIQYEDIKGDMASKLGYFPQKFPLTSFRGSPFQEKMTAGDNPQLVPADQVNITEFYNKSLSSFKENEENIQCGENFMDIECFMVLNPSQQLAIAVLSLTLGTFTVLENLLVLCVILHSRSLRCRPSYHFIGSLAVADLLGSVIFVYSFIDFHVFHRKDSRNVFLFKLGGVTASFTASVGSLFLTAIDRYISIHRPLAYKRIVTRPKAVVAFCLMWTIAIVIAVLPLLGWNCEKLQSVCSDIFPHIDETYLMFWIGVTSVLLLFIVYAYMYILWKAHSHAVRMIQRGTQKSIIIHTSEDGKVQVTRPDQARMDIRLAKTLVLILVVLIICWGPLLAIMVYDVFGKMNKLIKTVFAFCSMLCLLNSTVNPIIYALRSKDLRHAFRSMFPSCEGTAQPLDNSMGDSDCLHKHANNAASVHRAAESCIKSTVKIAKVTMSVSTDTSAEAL
T1 sequence (P21554 whole entry): as above

| Structure (SMILES) | IC50 [1] [nM] | Antiobesic activity (reducing weight) [2] | Antagonism (%) [3] [%] |
| --- | --- | --- | --- |
| C[C@H]1C(C(=O)NN2CCCCCC2)=NN(c2ccc(Cl)cc2Cl)[C@H]1c1ccc(Br)cc1.Cl (relative stereo) [Example 5, cis-N-(azepan-1-yl)-5-(4-bromophenyl)-1-(2,4-dichlorophenyl)-4-methyl-4,5-dihydro-1H-pyrazole-3-carboxamide hydrochloride] | 71 ± 2 | active in this model, reducing weight | 133 ± 5 |
| C[C@H]1C(C(=O)NN2CCCCCC2)=NN(c2ccc(Cl)cc2Cl)[C@H]1c1ccc(F)cc1 [Example 7] |  |  | 52 |
| COc1ccc([C@H]2[C@@H](C)C(C(=O)NN3CCCCCC3)=NN2c2ccc(Cl)cc2Cl)cc1.Cl (relative stereo) [Example 9, cis-N-(azepan-1-yl)-1-(2,4-dichlorophenyl)-5-(4-methoxyphenyl)-4-methyl-4,5-dihydro-1H-pyrazole-3-carboxamide hydrochloride] | 61 | active in this model, reducing weight | 117 ± 5 |
| C[C@H]1C(C(=O)NN2CCCCCC2)=NN(c2ccc(Cl)cc2Cl)[C@H]1c1ccc(F)cc1.Cl (relative stereo) [7 (HCl), cis-N-(azepan-1-yl)-5-(4-fluorophenyl)-1-(2,4-dichlorophenyl)-4-methyl-4,5-dihydro-1H-pyrazole-3-carboxamide hydrochloride] | 122 |  | 83 ± 6 |
| C[C@H]1C(C(=O)NN2CCCCCC2)=NN(c2ccc(Cl)cc2Cl)[C@H]1c1ccc(Cl)cc1.Cl (relative stereo) [Example 1, cis-N-(azepan-1-yl)-5-(4-chlorophenyl)-1-(2,4-dichlorophenyl)-4-methyl-4,5-dihydro-1H-pyrazole-3-carboxamide hydrochloride] | 7.9 ± 2.8 | active in this model, reducing weight | 99 ± 5 |
